System: WM3248 melanoma cells, 486 antibodies
Assay: Reverse phase protein arrays (RPPA);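 on RPPA ACC1.R.C: ratio of treated to vehicle (0 µM) normalized linear protein signal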;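 on RPPA AMPK.a2 pS345.R.V: ratio of treated to vehicle (0 µM) normalized linear protein signal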;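 on RPPA AMPKa pT172.R.C: ratio of treated to vehicle (0 µM) normalized linear protein signal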;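 on RPPA ASNS.R.V: ratio of treated to vehicle (0 µM) normalized linear protein signal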;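 on RPPA AceCS1.R.V: ratio of treated to vehicle (0 µM) normalized linear protein signal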;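 on RPPA Akt1.R.V: ratio of treated to vehicle (0 µM) normalized linear protein signal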;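 on RPPA Atg5.R.C: ratio of treated to vehicle (0 µM) normalized linear protein signal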;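 on RPPA Bim.R.V: ratio of treated to vehicle (0 µM) normalized linear protein signal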
Format: cell-based, Human
Details: 10 uM
Text: Pellets were snap frozen in liquid nitrogen and shipped to MD Anderson Cancer Center core RPPA facility for RPPA analysis (Table S5). Three biological replicates for each sample were generated.
Nomenclatures on the RPPA heatmaps: name_of_antibody.species_of_antibody.status_of_antibody. V - antibody validated; C - validation of antibody in progress; Q - antibody nonspecific; E – under evaluation; antibodies raised in M - mouse, G - goat, R - rabbit, or T - rat.

CN(C)c1cccc(Nc2cc(-c3ccccc3)nc(C3CCNCC3)n2)c1 [ARN22089, N1,N1-dimethyl-N3-(6-phenyl-2-(piperidin-4-yl)pyrimidin-4-yl)benzene-1,3-diamine]
RPPA B7.H4.R.C (10W1): 1.035 | RPPA B.Raf.R.C (10W1): 0.916 | RPPA B.Raf_pS445.R.V (10W1): 0.953 | RPPA BAP1.M.V (10W1): 0.957 | RPPA BCL2A1.R.V (10W1): 1.947 | RPPA BMK1.Erk5_pT218_Y220.R.V (10W1): 0.926 | RPPA BRCA1.M.C (10W1): 1.059 | RPPA BRD4.R.V (10W1): 1.134 | RPPA Bad_pS112.R.V (10W1): 1.118 | RPPA Bax.R.V (10W1): 1.004 | RPPA Bcl2.R.C (10W1): 1.048 | RPPA Bcl.xL.R.V (10W1): 1.112 | RPPA Beclin.R.C (10W1): 1.064 | RPPA Bim.R.V (10W1): 1.024 | RPPA X4E.BP1.R.V (10W1): 0.716 | RPPA X4E.BP1_pS65.R.V (10W1): 0.893 | RPPA X4E.BP1_pT37_T46.R.V (10W1): 0.934 | RPPA X14.3.3.zeta.R.V (10W1): 1.029 | RPPA X14.3.3βR.V (10W1): 1.012 | RPPA X14.3.3εM.C (10W1): 0.955 | RPPA X53BP1.R.V (10W1): 0.984 | RPPA b.Catenin.R.V (10W1): 0.868 | RPPA b.Catenin_pT41_S45.R.V (10W1): 1.019 | RPPA c.Abl.R.V (10W1): 1.140 | RPPA c.Abl_pY412.R.C (10W1): 0.995 | RPPA A.Raf_pS299.R.C (10W3): 0.989 | RPPA ACC1.R.C (10W3): 0.761 | RPPA ACC_pS79.R.V (10W3): 0.652 | RPPA ACLY_pS455.R.V (10W3): 1.060 | RPPA ACSL1.R.V (10W3): 0.743 | RPPA ACVRL1.R.C (10W3): 1.047 | RPPA ADAR1.M.V (10W3): 0.974 | RPPA AMPK.a2_pS345.R.V (10W3): 1.012 | RPPA AMPKa.R.C (10W3): 0.993 | RPPA AMPKa_pT172.R.C (10W3): 0.770 | RPPA AR.R.V (10W3): 0.980 | RPPA ARID1A.R.C (10W3): 1.025 | RPPA ASNS.R.V (10W3): 1.126 | RPPA ATM.R.V (10W3): 0.864 | RPPA ATM_pS1981.R.V (10W3): 1.016 | RPPA ATP5A.M.C (10W3): 0.859 | RPPA ATP5H.R.V (10W3): 1.047 | RPPA ATR.R.V (10W3): 0.992 | RPPA ATRX.R.C (10W3): 0.863 | RPPA ATR_pS428.R.C (10W3): 1.076 | RPPA AceCS1.R.V (10W3): 0.950 | RPPA Akt1.R.V (10W3): 1.034 | RPPA Akt1_pS473.R.V (10W3): 1.099 | RPPA Akt2.R.V (10W3): 0.982 | RPPA Akt2_pS474.R.C (10W3): 1.062 | RPPA Akt.R.V (10W3): 0.811 | RPPA Akt_pS473.R.V (10W3): 1.223 | RPPA Akt_pT308.R.V (10W3): 1.196 | RPPA Ambra1_pS52.R.C (10W3): 0.979 | RPPA Annexin.I.M.V (10W3): 0.896 | RPPA Annexin.VII.M.V (10W3): 0.983 | RPPA Atg5.R.C (10W3): 0.843 | RPPA Atg7.R.V (10W3): 0.986 | RPPA Aurora.A.R.C (10W3): 1.109 | RPPA Aurora.ABC_pT288_pT232_pT198.R.C (10W3): 0.933 | RPPA Aurora.B.R.V (10W3): 1.003 | RPPA Axl.R.V (10W3): 0.953 | RPPA B7.H3.R.C (10W3): 1.031 | RPPA B.Raf_pS445.R.V (10W3): 1.006 | RPPA BAP1.M.V (10W3): 1.063 | RPPA BCL2A1.R.V (10W3): 1.172 | RPPA BMK1.Erk5_pT218_Y220.R.V (10W3): 0.935 | RPPA BRCA1.M.C (10W3): 0.989 | RPPA BRD4.R.V (10W3): 0.839 | RPPA Bad_pS112.R.V (10W3): 1.059 | RPPA Bak.R.C (10W3): 1.018 | RPPA Bax.R.V (10W3): 0.972 | RPPA Bcl.xL.R.V (10W3): 1.015 | RPPA Beclin.R.C (10W3): 0.995 | RPPA BiP.GRP78.M.C (10W3): 1.013 | RPPA Bid.R.C (10W3): 1.021 | RPPA Bim.R.V (10W3): 0.900 | RPPA X4E.BP1.R.V (10W3): 0.590 | RPPA X4E.BP1_pS65.R.V (10W3): 1.148 | RPPA X4E.BP1_pT37_T46.R.V (10W3): 1.133 | RPPA X14.3.3.zeta.R.V (10W3): 1.033 | RPPA X14.3.3βR.V (10W3): 1.026 | RPPA X14.3.3εM.C (10W3): 1.009 | RPPA X53BP1.R.V (10W3): 0.920 | RPPA b.Actin.R.C (10W3): 1.024 | RPPA b.Catenin.R.V (10W3): 0.914 | RPPA b.Catenin_pT41_S45.R.V (10W3): 1.012 | RPPA c.Abl.R.V (10W3): 1.061 | RPPA c.Abl_pY412.R.C (10W3): 0.963 | RPPA c.IAP2.R.C (10W3): 1.023 | C.Raf.R.C RPPA level (Average): 0.940 | C.Raf_pS338.R.V RPPA level (Average): 0.978 | CA9.R.C RPPA level (Average): 0.980 | CD2.M.C RPPA level (Average): 1.035 | CD4.R.V RPPA level (Average): 0.935 | CD5.M.C RPPA level (Average): 1.029 | CD20.R.C RPPA level (Average): 1.026 | CD26.R.V RPPA level (Average): 0.948 | CD29.M.V RPPA level (Average): 1.016 | CD31.M.V RPPA level (Average): 1.034 | CD38.R.C RPPA level (Average): 0.977 | CD44.R.C RPPA level (Average): 1.010 | CD45.M.V RPPA level (Average): 1.023 | CD49b.M.V RPPA level (Average): 1.014 | CD68.M.C RPPA level (Average): 1.034 | CD134.R.V RPPA level (Average): 1.019 | CD171.M.V RPPA level (Average): 0.898 | CDK1_pT14.R.C RPPA level (Average): 0.932 | CDK9.R.V RPPA level (Average): 1.014 | CDT1.R.V RPPA level (Average): 1.048 | CENP.A.R.V RPPA level (Average): 1.017 | CHD1L.R.V RPPA level (Average): 1.034 | CIITA.R.C RPPA level (Average): 1.018 | COG3.R.V RPPA level (Average): 1.062 | CRABP1.R.C RPPA level (Average): 1.050 | CREB_pS133.R.C RPPA level (Average): 1.130 | Calnexin.R.V RPPA level (Average): 1.046 | Caspase.3.cleaved.R.C RPPA level (Average): 0.944 | Caspase.7.cleaved..R.C RPPA level (Average): 0.997 | Caspase.8.M.Q RPPA level (Average): 0.957 | Caspase.8.cleaved.R.C RPPA level (Average): 0.988 | Caveolin.1.R.V RPPA level (Average): 0.941 | Cdc6.R.V RPPA level (Average): 0.971 | Cdc42.R.C RPPA level (Average): 0.986 | Chk1.M.C RPPA level (Average): 1.082 | Chk1_pS345.R.C RPPA level (Average): 0.961 | Chk2.M.V RPPA level (Average): 1.026 | Chk2_pT68.R.C RPPA level (Average): 1.020 | Claudin.7.R.V RPPA level (Average): 1.203 | Collagen.VI.R.V RPPA level (Average): 1.025 | Complex.II.Subunit.M.V RPPA level (Average): 1.017 | Connexin.43.R.C RPPA level (Average): 1.031 | Coup.TFII.R.C RPPA level (Average): 0.889 | Cox2.R.C RPPA level (Average): 0.972 | Cox.IV.R.V RPPA level (Average): 0.954 | Creb.R.C RPPA level (Average): 0.986 | CtIP.R.V RPPA level (Average): 0.940 | Cyclin.B1.R.V RPPA level (Average): 0.940 | Cyclin.D1.R.C RPPA level (Average): 1.061 | Cyclin.D3.M.V RPPA level (Average): 1.058 | Cyclin.E1.R.V RPPA level (Average): 1.006 | Cyclophilin.F.M.V RPPA level (Average): 0.965 | D.a.Tubulin.R.V RPPA level (Average): 0.976 | DAPK2.R.C RPPA level (Average): 0.971 | DDB.1.R.V RPPA level (Average): 0.857 | DDR1.R.V RPPA level (Average): 1.028 | DDR1_pY513.R.C RPPA level (Average): 1.051 | DJ1.R.V RPPA level (Average): 1.016 | DM.Histone.H3.R.V RPPA level (Average): 0.928 | DNA.Ligase.IV.R.C RPPA level (Average): 1.003 | DNA_POLG.R.V RPPA level (Average): 1.013 | RPPA A.Raf.R.V (Average): 0.917 | RPPA ACC1.R.C (Average): 0.919 | RPPA ACC_pS79.R.V (Average): 0.878 | RPPA ACLY_pS455.R.V (Average): 1.125 | RPPA ACSL1.R.V (Average): 0.971 | RPPA ADAR1.M.V (Average): 1.083 | RPPA ALKBH5.R.V (Average): 1.027 | RPPA AMPK.a2_pS345.R.V (Average): 1.001 | RPPA AMPKa.R.C (Average): 0.982 | RPPA AMPKa_pT172.R.C (Average): 1.263 | RPPA AR.R.V (Average): 0.922 | RPPA ASNS.R.V (Average): 0.960

— paper PMC9127750, “Structure-based design of CDC42 effector interaction inhibitors for the treatment of cancer” (Cell reports, 2022)
